PMC5848165 (Toxins, 2018)
“Also recorded” adds a separate entry of the source. Residues, ends and D or L forms follow the SMILES beside them.

Tests used:
Nav1.5 R800D = target: T1, Nav1.5 R800D (Rattus norvegicus, UniProt P15389, R801D); assay: Whole-cell patch clamp, Nav1.5 mutant R800D in HEK293 cells; assay type: cell-based; details: 1 µM
T1 construct: expressed in transfected cells; host or cells: HEK293 (HEK293T) cells, transient
Description: We next investigated the critical residues in DIIS3-S4 linker that determined the sensitivity of Nav1.7 to JZTX-34. An acidic residue, D816, is present in the DIIS3-S4 linker of Nav1.7, while the corresponding residue in Nav1.5 is an alkaline amino acid, R800. To determine whether the acidic residue D816 occupies an important role in toxin binding, we constructed two mutants: D816R of Nav1.7 and R800D of Nav1.5. One µM of JZTX-34 inhibited 54.3 ± 5.2% of WT Nav1.7 currents (Figure 4A), but only 16.8 ± 4.6% currents of D816R were inhibited at the same concentration (Figure 4B). […]
The HEK293T cells were maintained in standard culture conditions (5% CO2 and 37 °C). […] After culturing for 36–72 h, cells with obvious green fluorescence were selected for sodium currents recordings the internal solution for sodium currents recording that contained (in mM) 140 CsF, 5 NaCl, 10 HEPES, 3 Na2-ATP, and 10 EGTA. […]
Sodium currents were recorded from DRG, HEK293, and ND cells by the whole-cell patch-clamp technique at 25 °C. […] Experiments date were acquired from whole-cell Axon 700B patch clamp amplifier (Molecular Devices, Sunnyvale, CA, USA) and analyzed by the program Clampfit10.0 (Molecular Devices, Sunnyvale, CA, USA) and Sigmaplot. […]
Data from Axon 700B patch clamp were analyzed by Clampfit10.0 (Molecular Devices, Sunnyvale, CA, USA). […]

hot plate test in mice = assay: Hot plate test; assay type: in vivo, mouse (Kunming); details: for hot plate latency: 120 min, baseline about 10 s, n = 6
Protocol: Figure 6 Effects of JZTX-34 on pain. (A) Effects of JZTX-34 on the early phase (0–5 min) and late phase (15–30 min) of formalin-induced paw licking response in mice. (B) Effects of JZTX-34 on the acetic acid-induced writhing response in mice. (C)Effects of JZTX-34 on the hot plate test in mice.
Mice with a latency time about 10 s were selected for the hot plate test. […] After administration of test samples, the latency time was recorded at the time points of 30 min, 60 min, 120 min, and 180 min (Figure 6C). Negative control animals received the same volume of vehicle.
The synthesized JZTX-34 was obtained according to the procedure as previously described. […] Rats (Sprague-Dawley) and Kunming mice were maintained in the Laboratory of Protein Chemistry of Hunan Normal University. All of the experimental involving animals were approved by the Animal Care and Use Committee of Hunan Normal University (2016-273, 13 October 2016).
Mice were put on a hot plate apparatus (model HZ66-ZH-YLS-6B, Shanghai, China) in order to test response time to a thermal stimulus. The responses time of mice at about 10 s was selected for the test. […] Hind paw licking or jumping were regarded as a sign to avoid heat nociception.
Data from Axon 700B patch clamp were analyzed by Clampfit10.0 (Molecular Devices, Sunnyvale, CA, USA). Dose-response curves were fitted by the Hill logistic equation: y = 1 − (1 − fmax)/[…]. In this equation, n stands an empirical Hill coefficient and fmax is the fraction of current resistant to inhibition at high toxin (Tx) concentration. The G-V curves were obtained by calculating the conductance (G) at each voltage (V) using the equation G = I/(V1 − Vrev), with Vrev being the reversal potential determined for each cell individually. G-V curves were fitted using a Boltzmann equation—y = 1/(1 + exp[(Va − V)/κ])—in which Va, V, and κ represent midpoint voltage of kinetics, test potential, and slope factor, respectively. […] Statistical significance was calculated using Student’s t-test and was defined as p < 0.05.

T1 sequence (Q07699 19-218): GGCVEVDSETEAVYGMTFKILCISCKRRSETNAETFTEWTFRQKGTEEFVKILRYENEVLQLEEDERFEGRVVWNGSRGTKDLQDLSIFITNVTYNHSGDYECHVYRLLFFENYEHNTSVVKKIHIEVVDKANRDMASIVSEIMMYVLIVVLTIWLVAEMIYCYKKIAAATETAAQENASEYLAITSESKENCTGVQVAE
T1 sequence (P15389 whole entry R801D): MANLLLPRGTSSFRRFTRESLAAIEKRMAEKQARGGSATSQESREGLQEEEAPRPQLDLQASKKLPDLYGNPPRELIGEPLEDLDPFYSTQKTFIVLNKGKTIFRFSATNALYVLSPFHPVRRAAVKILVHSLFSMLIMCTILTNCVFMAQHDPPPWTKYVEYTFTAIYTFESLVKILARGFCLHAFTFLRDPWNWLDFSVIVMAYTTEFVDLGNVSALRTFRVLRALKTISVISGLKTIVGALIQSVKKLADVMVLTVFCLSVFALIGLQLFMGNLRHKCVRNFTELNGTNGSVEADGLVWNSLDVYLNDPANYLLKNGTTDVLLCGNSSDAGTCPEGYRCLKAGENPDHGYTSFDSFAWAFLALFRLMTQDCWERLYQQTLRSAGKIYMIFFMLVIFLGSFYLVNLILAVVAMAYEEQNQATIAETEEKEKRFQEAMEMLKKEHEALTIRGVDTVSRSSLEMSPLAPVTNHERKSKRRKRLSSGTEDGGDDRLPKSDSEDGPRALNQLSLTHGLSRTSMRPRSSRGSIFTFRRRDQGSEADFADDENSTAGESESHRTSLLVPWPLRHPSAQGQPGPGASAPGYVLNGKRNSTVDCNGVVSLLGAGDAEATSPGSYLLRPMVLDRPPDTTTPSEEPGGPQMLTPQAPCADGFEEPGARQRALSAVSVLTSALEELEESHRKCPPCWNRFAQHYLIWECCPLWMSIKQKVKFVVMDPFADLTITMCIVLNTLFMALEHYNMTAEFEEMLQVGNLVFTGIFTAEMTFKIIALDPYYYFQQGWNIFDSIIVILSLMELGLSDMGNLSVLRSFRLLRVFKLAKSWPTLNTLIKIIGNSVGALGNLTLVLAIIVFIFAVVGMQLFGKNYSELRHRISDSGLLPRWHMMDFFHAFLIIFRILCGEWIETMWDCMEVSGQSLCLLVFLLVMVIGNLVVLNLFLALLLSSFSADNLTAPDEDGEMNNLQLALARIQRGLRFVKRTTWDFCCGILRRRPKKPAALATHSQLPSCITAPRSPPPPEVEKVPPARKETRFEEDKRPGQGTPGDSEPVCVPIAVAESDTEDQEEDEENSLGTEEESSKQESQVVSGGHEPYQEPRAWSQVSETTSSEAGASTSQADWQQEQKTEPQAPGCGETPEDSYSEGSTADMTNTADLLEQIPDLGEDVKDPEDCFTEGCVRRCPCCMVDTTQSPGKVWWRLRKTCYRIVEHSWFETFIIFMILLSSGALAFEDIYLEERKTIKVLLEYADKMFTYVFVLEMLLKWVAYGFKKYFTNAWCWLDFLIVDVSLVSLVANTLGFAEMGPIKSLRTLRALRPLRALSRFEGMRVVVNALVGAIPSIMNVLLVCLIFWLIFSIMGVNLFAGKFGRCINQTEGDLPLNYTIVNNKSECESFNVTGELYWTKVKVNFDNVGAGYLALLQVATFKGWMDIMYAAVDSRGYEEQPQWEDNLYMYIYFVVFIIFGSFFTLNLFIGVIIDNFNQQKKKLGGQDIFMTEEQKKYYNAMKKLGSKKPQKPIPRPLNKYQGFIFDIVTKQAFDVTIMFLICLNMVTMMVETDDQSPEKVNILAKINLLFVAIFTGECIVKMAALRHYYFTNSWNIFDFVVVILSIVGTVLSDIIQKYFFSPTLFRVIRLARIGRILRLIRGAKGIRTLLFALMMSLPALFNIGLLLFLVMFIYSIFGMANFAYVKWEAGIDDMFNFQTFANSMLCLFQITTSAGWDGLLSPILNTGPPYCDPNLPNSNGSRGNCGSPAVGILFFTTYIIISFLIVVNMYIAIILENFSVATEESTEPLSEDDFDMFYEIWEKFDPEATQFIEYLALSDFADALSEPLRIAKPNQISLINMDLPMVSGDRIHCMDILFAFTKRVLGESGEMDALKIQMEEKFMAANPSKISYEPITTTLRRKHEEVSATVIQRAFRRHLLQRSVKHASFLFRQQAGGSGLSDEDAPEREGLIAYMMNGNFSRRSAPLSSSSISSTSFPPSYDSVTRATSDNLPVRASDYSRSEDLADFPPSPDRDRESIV

CC(C)C[C@@H]1NC(=O)[C@H](Cc2c[nH]c3ccccc23)NC(=O)[C@H](CCC(=O)O)NC(=O)[C@H](CCCNC(=N)N)NC(=O)[C@@H](NC(=O)[C@H](C)N)CSSC[C@@H]2NC(=O)[C@@H]3CSSC[C@@H](C(=O)N[C@H](C(=O)N[C@@H](Cc4c[nH]c5ccccc45)C(=O)N[C@@H](CC(=O)O)C(=O)N[C@@H](Cc4c[nH]c5ccccc45)C(=O)N[C@H](C(=O)N[C@H](C(=O)O)C(C)C)[C@@H](C)O)C(C)C)NC(=O)[C@H](Cc4c[nH]cn4)NC(=O)[C@H](Cc4ccc(O)cc4)NC(=O)[C@@H]4CCCN4C(=O)[C@H](Cc4c[nH]c5ccccc45)NC(=O)[C@H](CCCCN)NC(=O)[C@H](CCCCN)NC(=O)[C@H](CCCNC(=N)N)NC(=O)[C@H](CSSC[C@H](NC(=O)CNC(=O)CNC1=O)C(=O)N[C@@H](CO)C(=O)N[C@@H](CCCCN)C(=O)N[C@@H](CC(=O)O)C(=O)N[C@@H](C)C(=O)N[C@@H](CC(=O)O)C(=O)N3)NC(=O)[C@H](CCC(=O)O)NC(=O)[C@H](CC(C)C)NC(=O)[C@H](Cc1c[nH]cn1)NC(=O)[C@H](C)NC2=O [JZTX-34, Jingzhaotoxin-34] (HELM PEPTIDE1{A.C.R.E.W.L.G.G.C.S.K.D.A.D.C.C.A.H.L.E.C.R.K.K.W.P.Y.H.C.V.W.D.W.T.V}$PEPTIDE1,PEPTIDE1,2:R3-16:R3|PEPTIDE1,PEPTIDE1,9:R3-21:R3|PEPTIDE1,PEPTIDE1,15:R3-29:R3$$$V2.0; N-terminus and C-terminus assumed)
inhibition of Nav1.5 R800D currents (Nav1.5 R800D): obviously inhibited | hot plate latency (hot plate test in mice; 0.5 mg/kg i.p.): 18.3 s | hot plate latency (hot plate test in mice; 1 mg/kg i.p.): 23.0 s | hot plate latency (hot plate test in mice; 2 mg/kg i.p.): 31.6 s | time of maximal analgesia, hot plate (hot plate test in mice; 0.5, 1 or 2 mg/kg i.p.): 120 min | hot plate, analgesia vs morphine (hot plate test in mice; JZTX-34 2 mg/kg vs morphine 5 mg/kg): longer duration and is more effective than morphine; also recorded: longer and stronger analgesia effects than 5 mg/kg morphine
